According to patent US9546164B2 (GENENTECH, INC., priority 2013, dated 2017):
Structures can show the parent of a compound that is named as a salt. Where two headings read alike, the source gives them in different places.

Molecular target: hNav1.7 (Homo sapiens (Human), UniProt Q15858)
Assay: Tritiated sulfonamide competitive binding to membranes from cells expressing hNav1.7 and the β1 subunit;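 note: Filter-bound radioactivity counted by liquid scintillation, nonspecific binding defined with excess unlabelled ligand, IC50 fitted to percent inhibition of specific binding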
[1] = read-out: Ligand Binding Assay, 100 pM [3H]compound, membranes with hNav1.7 and β1 subunit, 18 h, room temperature

Chain of hNav1.7 (Q15858 other isoform, or with tags, fused parts or gaps): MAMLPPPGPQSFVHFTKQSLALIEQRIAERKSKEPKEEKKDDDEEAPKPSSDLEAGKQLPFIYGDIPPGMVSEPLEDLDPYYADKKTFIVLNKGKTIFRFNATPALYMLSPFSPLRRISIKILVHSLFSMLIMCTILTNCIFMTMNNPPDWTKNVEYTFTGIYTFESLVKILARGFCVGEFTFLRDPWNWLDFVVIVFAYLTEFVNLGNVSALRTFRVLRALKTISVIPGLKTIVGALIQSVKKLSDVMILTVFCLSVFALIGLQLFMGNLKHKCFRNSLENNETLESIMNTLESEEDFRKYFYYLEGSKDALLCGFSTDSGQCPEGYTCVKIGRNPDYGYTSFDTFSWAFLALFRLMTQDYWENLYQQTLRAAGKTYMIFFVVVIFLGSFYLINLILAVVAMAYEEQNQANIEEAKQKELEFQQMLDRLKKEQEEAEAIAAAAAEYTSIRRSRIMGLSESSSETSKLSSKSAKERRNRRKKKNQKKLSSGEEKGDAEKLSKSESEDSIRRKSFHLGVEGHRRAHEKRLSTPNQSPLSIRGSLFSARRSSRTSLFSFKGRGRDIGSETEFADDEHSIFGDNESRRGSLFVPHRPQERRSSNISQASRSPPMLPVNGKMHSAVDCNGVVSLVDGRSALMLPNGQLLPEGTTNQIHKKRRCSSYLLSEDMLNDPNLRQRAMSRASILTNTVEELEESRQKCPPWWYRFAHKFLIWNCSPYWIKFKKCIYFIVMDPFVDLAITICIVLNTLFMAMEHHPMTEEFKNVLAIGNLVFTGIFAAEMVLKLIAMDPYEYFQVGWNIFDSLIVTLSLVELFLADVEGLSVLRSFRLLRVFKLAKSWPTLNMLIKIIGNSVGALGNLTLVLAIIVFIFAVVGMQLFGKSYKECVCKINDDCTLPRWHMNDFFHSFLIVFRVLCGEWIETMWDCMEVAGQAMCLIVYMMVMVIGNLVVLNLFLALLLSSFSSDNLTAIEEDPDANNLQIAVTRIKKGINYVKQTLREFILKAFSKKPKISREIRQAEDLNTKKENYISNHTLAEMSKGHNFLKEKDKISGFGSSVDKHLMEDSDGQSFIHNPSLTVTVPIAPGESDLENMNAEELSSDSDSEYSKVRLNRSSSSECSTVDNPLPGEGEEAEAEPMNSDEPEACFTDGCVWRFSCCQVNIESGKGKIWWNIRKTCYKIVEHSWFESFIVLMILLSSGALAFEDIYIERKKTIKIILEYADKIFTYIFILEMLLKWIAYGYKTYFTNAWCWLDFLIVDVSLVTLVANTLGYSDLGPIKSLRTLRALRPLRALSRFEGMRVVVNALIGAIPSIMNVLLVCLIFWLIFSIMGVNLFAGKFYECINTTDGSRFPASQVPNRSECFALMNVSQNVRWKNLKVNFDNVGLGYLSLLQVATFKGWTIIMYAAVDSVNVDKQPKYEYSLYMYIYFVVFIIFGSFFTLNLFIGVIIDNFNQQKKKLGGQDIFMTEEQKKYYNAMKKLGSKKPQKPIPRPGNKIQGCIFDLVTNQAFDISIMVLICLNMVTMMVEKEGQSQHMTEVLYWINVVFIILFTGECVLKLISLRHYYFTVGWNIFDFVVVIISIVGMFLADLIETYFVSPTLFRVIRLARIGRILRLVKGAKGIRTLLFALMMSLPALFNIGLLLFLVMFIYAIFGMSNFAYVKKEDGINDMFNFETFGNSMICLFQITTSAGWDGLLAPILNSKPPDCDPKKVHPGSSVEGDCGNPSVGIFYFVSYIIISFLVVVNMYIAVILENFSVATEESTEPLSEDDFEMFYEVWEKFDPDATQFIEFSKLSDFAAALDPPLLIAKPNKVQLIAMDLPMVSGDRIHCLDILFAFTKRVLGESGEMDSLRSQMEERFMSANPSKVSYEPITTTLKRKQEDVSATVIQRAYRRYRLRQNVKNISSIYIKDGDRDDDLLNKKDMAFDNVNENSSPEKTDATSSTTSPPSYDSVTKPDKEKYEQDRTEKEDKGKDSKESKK
Chain of hNav1.7 (Q07699 19-218 partner): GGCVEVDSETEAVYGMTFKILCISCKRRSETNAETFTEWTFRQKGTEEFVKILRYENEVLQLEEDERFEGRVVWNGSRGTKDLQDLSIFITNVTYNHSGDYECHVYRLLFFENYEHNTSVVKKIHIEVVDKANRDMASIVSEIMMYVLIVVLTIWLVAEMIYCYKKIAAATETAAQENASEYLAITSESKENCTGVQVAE

Row | IC50 | IC50 [1] | SMILES
1 | 220 nM | – | CS(=O)(=O)NC(=O)c1cc(C2CC2)c(CN2CCC(S(=O)(=O)c3cc(Cl)cc(Cl)c3)CC2)cc1F [Example 532, 5-cyclopropyl-4-((4-((3,5-dichlorophenyl)sulfonyl)piperidin-1-yl)methyl)-2-fluoro-N-(methylsulfonyl)benzamide, trifluoroacetic acid salt]
2 | – | 270 nM | CS(=O)(=O)NC(=O)c1cc(C2CC2)c(OCC2CCN(C(=O)c3ccc(Cl)cc3Cl)CC2)cc1F [Example 257, 5-Cyclopropyl-4-((1-(2,4-dichlorobenzoyl)piperidin-4-yl)methoxy)-2-fluoro-N-(methylsulfonyl)benzamide]
3 | – | 2.7 nM | CS(=O)(=O)NC(=O)c1cc(C2CC2)c(O[C@@H]2CCCN(CC3(C(F)(F)F)CCCC3)C2)cc1F [Example 327, (R)-5-cyclopropyl-2-fluoro-N-(methylsulfonyl)-4-((1-((1-(trifluoromethyl)cyclopentyl)methyl)piperidin-3-yl)oxy)benzamide]
4 | 2.2 nM | – | O=C(NS(=O)(=O)C1CC1)c1cc(C2CC2)c(CN2CCC(Sc3cc(Cl)cc(Cl)c3)CC2)cc1F [Example 531, 5-cyclopropyl-N-(cyclopropylsulfonyl)-4-((4-((3,5-dichlorophenyl)thio)piperidin-1-yl)methyl)-2-fluorobenzamide, trifluoroacetic acid salt]
5 | – | 2.9 nM | CS(=O)(=O)NC(=O)c1cc(C2CC2)c(OCC2CCN(C(c3ccc(Cl)cc3)c3ccc(Cl)cc3)CC2)cc1F [Example 362, 4-((1-(bis(4-chlorophenyl)methyl)piperidin-4-yl)methoxy)-5-cyclopropyl-2-fluoro-N-(methylsulfonyl)benzamide, trifluoroacetic acid salt]
6 | – | 2 nM | CS(=O)(=O)NC(=O)c1cc(C2CC2)c(OCC2CCN(C(c3ccccc3Cl)c3ccccc3Cl)CC2)cc1F [Example 361, 4-((1-(bis(2-chlorophenyl)methyl)piperidin-4-yl)methoxy)-5-cyclopropyl-2-fluoro-N-(methylsulfonyl)benzamide, trifluoroacetic acid salt]
7 | – | 2.3 nM | C[C@@H](c1ccc(F)cc1Cl)N1CCC[C@@H](Oc2cc(F)c(C(=O)NS(C)(=O)=O)cc2C2CC2)C1 [Example 295, 4-(((R)-1-((S)-1-(2-chloro-4-fluorophenyl)ethyl)piperidin-3-yl)oxy)-5-cyclopropyl-2-fluoro-N-(methylsulfonyl)benzamide]
8 | – | 5 nM | C[C@@H](c1cc(F)cc(C(F)(F)F)c1)N1CCC(C)(COc2cc(F)c(C(=O)NS(C)(=O)=O)cc2C2CC2)CC1 (single isomer, unassigned) [Example 171]
9 | – | 11.3 nM | O=C(NS(=O)(=O)N1CCC1)c1cc(C2CC2)c(CN2CCO[C@H](Cc3ccc(F)cc3Cl)C2)cc1F [Example 468, (R)-N-(azetidin-1-ylsulfonyl)-4-((2-(2-chloro-4-fluorobenzyl)morpholino)methyl)-5-cyclopropyl-2-fluorobenzamide, trifluoroacetic acid salt]
10 | – | 16.5 nM | O=C(NS(=O)(=O)N1CCC1)c1cc(C2CC2)c(OC[C@H]2CCCN(Cc3ccc(F)cc3Cl)C2)cc1F [Example 339, (S)—N-(azetidin-1-ylsulfonyl)-4-((1-(2-chloro-4-fluorobenzyl)piperidin-3-yl)methoxy)-5-cyclopropyl-2-fluorobenzamide, trifluoroacetic acid salt]
11 | – | 100 nM | CS(=O)(=O)NC(=O)c1cc(C2CC2)c(OCC2CN([C@@H](c3ccccc3)c3ccccc3Cl)C2)cc1F [Example 150, (S)-4-((1-((2-Chlorophenyl)(phenyl)methyl)azetidin-3-yl)methoxy)-5-cyclopropyl-2-fluoro-N-(methylsulfonyl)benzamide]
12 | – | 73.7 nM | CS(=O)(=O)NC(=O)c1cc(C2CC2)c(OCC2CCN(Cc3ccccc3C#N)CC2)cc1F [Example 149, 4-((1-(2-Cyanobenzyl)piperidin-4-yl)methoxy)-5-cyclopropyl-2-fluoro-N-(methylsulfonyl)benzamide]
13 | – | 2.54 nM | CC(c1cc(Cl)cc(Cl)c1)N1CCC(COc2cc(F)c(C(=O)NS(=O)(=O)C3CC3)cc2C2CC2)CC1 (centres unmarked) [Example 102, 5-Cyclopropyl-N-(cyclopropylsulfonyl)-4-((1-(1-(3,5-dichlorophenyl)-ethyl)piperidin-4-yl)methoxy)-2-fluorobenzamide]
14 | 7120 nM | – | CC(C)(C)N1CCC[C@@H](Oc2cc(F)c(C(=O)NS(C)(=O)=O)cc2C2CC2)C1 [Example 538, (R)-4-((1-(tert-butyl)piperidin-3-yl)oxy)-5-cyclopropyl-2-fluoro-N-(methylsulfonyl)benzamide]
15 | – | 59.9 nM | CS(=O)(=O)NC(=O)c1cc(C2CC2)c(OCC2(F)CCN(Cc3cc(C(F)(F)F)cc(C4CC4)n3)CC2)cc1F [Example 596]
16 | – | 3.1 nM | CC1(COc2cc(F)c(C(=O)NS(=O)(=O)C3CC3)cc2C2CC2)CN(c2ncc(C(F)(F)F)cc2Cl)C1 [Example 481, 4-((1-(3-chloro-5-(trifluoromethyl)pyridin-2-yl)-3-methylazetidin-3-yl)methoxy)-5-cyclopropyl-N-(cyclopropylsulfonyl)-2-fluorobenzamide]
17 | – | 7.9 nM | CCS(=O)(=O)NC(=O)c1cc(C2CC2)c(OCC2CCN([C@@H](C)c3ccc(F)cc3Cl)CC2)cc1F (single isomer, unassigned) [Example 245]
18 | – | 3.8 nM | O=C(NS(=O)(=O)C1CC1)c1cc(C2CC2)c(OCC2CCN(Cc3ccc(Br)cc3Cl)CC2)cc1F [Example 414, 4-((1-(4-bromo-2-chlorobenzyl)piperidin-4-yl)methoxy)-5-cyclopropyl-N-(cyclopropylsulfonyl)-2-fluorobenzamide, trifluoroacetic acid salt]
19 | – | 6 nM | CS(=O)(=O)NC(=O)c1cc(C2CC2)c(OCC2CCN(Cc3cc(C(F)(F)F)cc(C4CC4)n3)CC2)cc1F [Example 306, 5-cyclopropyl-4-((1-((6-cyclopropyl-4-(trifluoromethyl)pyridin-2-yl)methyl)piperidin-4-yl)methoxy)-2-fluoro-N-(methylsulfonyl)benzamide]
20 | – | 1.8 nM | COC(C)(C)[C@H](c1cc(Cl)cc(Cl)c1)N1CCC(COc2cc(F)c(C(=O)NS(C)(=O)=O)cc2C2CC2)CC1 (single isomer, unassigned) [Example 206]
21 | – | 750 nM | CC(C)(C)OC(=O)N1CC(COc2cc(F)c(C(=O)NS(C)(=O)=O)cc2C2CC2)C1 [Example 72, tert-butyl 3-((2-cyclopropyl-5-fluoro-4-((methylsulfonyl)carbamoyl)phenoxy)methyl)azetidine-1-carboxylate]
22 | 720 nM | – | O=C(NS(=O)(=O)C1CC1)c1cc(C2CC2)c(CN2CCC([S+]([O-])c3cc(Cl)cc(Cl)c3)CC2)cc1F (centres unmarked) [Example 535, 5-cyclopropyl-N-(cyclopropylsulfonyl)-4-((4-((3,5-dichlorophenyl)sulfinyl)piperidin-1-yl)methyl)-2-fluorobenzamide, trifluoroacetic acid salt]

Row | SMILES | IC50 | IC50 [1]
23 | CS(=O)(=O)NC(=O)c1cc(C2CC2)c(OC[C@@H]2C[C@H]3CC[C@@H](C2)N3Cc2cc(C(F)(F)F)cc(Cl)c2F)cc1F [Example 398, 4-(((1R,3S,5S)-8-(3-chloro-2-fluoro-5-(trifluoromethyl)benzyl)-8-azabicyclo[3.2.1]octan-3-yl)methoxy)-5-cyclopropyl-2-fluoro-N-(methylsulfonyl)benzamide, trifluoroacetic acid salt] | – | 5.1 nM
